Results reported in patent US10836747B2, “Ethane-sulfonate salt of quinoline derivative” (ONO PHARMACEUTICAL CO., LTD., priority 2017, dated 2020).

Legend:
[1] = Evaluation of hygroscopicity (DVS; dynamic vapor sorption); assay type: physicochemical; conditions: for Weight increase at relative humidity of 90% (%): DVS, 25° C., relative to weight at 0% RH after drying
Method: [3] Evaluation of Hygroscopicity (DVS; Dynamic Vapor Sorption)
Device: SGA-100 manufactured by TA Instruments,
Sample amount: 10 to 20 mg,
Measurement temperature: 25° C.,
Drying before measurement: 60° C., 1 hour,
Starting humidity: 0% RH,
Maximum humidity: 90% RH,
Equilibrium criteria: weight change rate in 5 minutes is 0.01% or less,
Sampling interval: 30 seconds,
Data recording interval: two minutes or time at which weight change rate become 0.01% or more.
Various acid addition salts of the compounds A produced in Examples (Examples 7, 8, 9, 10, 11, 12, 13, and 14) and the compound of the present invention (Example 6) were subjected to hygroscopicity evaluation. Based on the measurement conditions shown in [3] in [Study of acid addition salt of compound A], hygroscopicity was evaluated. Sample weight was recorded after the weight of the sample in the relative humidity set every 10% became equilibrium. After drying, the change amount (%) was converted on the basis of the weight when the relative humidity was 0%.

[2] = Light stability evaluation of active pharmaceutical ingredient; assay type: physicochemical; conditions: for residual rate %: active pharmaceutical ingredient, 2500 Lux D65 lamp, 25° C., 20 days
Method: (§1) Ethanesulfonate of the compound A produced in Example 6 and p-toluenesulfonate of the compound A produced in Example 9 were evaluated in terms of the light stability. Each acid addition salt was weighed in a laboratory tube in about 1.8 to 2.2 mg, capped with a plastic cap and wrapped with a parafilm. A sample placed in the transparent laboratory tube was used as an exposure sample, a sample placed in the brown laboratory tube was used as a light shielded sample, and a sample placed in the brown laboratory tube and further covered with aluminum foil was used as an aluminum foil completely shielded sample. Each sample was exposed to light whose total illumination of 1200000 Lux-h or more and total near ultraviolet radiation energy of 200 W·h/m^2 or more by exposing to 2500 Lux D65 lamp at 25° C. for 20 days.
Detector: ultraviolet spectrometer (measurement wavelength: 215 nm),
Column: Imtakt Unison UK-C18 (3 μm, inner diameter: 4.6 mm×150 mm),
Column temperature: 40° C.,
Mobile phase: A liquid: 20 mM KH2PO4 aq. (pH 3.0), B liquid: CH3CN,
Flow rate: 1.0 mL/minute,
Area measurement range: 60 minutes
Sample concentration: 0.5 mg/mL.
(§2) The area percentage of ethanesulfonate of the compound A and p-toluenesulfonate of the compound A which were not exposed to light and stored at −20° C., and each acid addition salt of the compound A subjected to the above light stability test were calculated under the measurement conditions mentioned above. Next, in each acid addition salt of the compound A, the rate of the area percentage of the acid addition salt of the compound A which was not exposed to light and stored at −20° C. (area percentage of acid addition salt of compound A exposed to light for 20 days/area percentage of acid addition salt of compound A which is not exposed to light and stored at −20° C.×100) was calculated as the residual rate of each compound.

[3] = Light stability evaluation of simple formulation (mixed with CEOLUS PH-301); assay type: physicochemical; conditions: simple formulation with CEOLUS PH-301 1 to 5 (weight ratio), 2500 Lux D65 lamp, 25° C., 20 days
Method: as §1, §2
Each acid addition salt of the compound A, regarding to ethanesulfonate of the compound A produced in Example 6 and p-toluenesulfonate of the compound A produced in Example 9, was mixed with CEOLUS (registered trademark) PH-301 (Asahi Kasei Corporation) in a mixing ratio of 1 to 5 (weight ratio) on a medicine paper with a spatula to prepare a simple formulation. The simple formulation was weighed into a laboratory tube in about 3 mg, capped with a plastic cap, and wrapped with a parafilm. Hereinafter, the light exposure condition of the compound, and the measurement conditions were corresponding to the […] of the stability of the active pharmaceutical ingredient of above (1).

Axl = target: T1, Axl (Homo sapiens, UniProt P30530); conditions: mentioned in Patent Literature 5 (WO2015/012298); cited from earlier work
T1 sequence (P30530 26-894): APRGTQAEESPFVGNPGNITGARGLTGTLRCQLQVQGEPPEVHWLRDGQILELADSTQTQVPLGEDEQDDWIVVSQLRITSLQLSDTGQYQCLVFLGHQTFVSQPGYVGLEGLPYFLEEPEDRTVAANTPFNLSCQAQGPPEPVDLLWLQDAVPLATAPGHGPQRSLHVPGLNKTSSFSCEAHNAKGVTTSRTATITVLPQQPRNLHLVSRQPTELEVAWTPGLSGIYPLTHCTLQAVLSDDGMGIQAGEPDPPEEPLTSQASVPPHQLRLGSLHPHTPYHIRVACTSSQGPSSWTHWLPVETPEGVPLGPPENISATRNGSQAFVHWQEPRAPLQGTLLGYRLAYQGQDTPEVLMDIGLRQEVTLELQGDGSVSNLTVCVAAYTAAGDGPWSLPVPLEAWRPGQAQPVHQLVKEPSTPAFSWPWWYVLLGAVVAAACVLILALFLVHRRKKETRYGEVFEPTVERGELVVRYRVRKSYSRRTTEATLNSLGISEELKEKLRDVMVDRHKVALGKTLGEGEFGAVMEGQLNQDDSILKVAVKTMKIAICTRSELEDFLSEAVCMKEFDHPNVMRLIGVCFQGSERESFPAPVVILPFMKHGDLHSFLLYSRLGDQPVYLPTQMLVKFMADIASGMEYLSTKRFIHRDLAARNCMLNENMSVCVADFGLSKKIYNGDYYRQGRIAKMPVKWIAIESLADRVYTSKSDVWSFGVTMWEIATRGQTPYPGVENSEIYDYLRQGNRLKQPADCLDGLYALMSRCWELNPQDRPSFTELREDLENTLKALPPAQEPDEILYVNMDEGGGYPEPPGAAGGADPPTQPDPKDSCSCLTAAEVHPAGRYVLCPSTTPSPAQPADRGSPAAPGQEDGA

CYP = conditions: mentioned in Patent Literature 5 (WO2015/012298); cited from earlier work
[4] = Brown bottle (light shielded sample)
[5] = Transparent bottle (exposure sample)

COc1cc2nccc(Oc3ccc(NC(=O)c4cc5c(n(-c6ccccc6)c4=O)CCCC5=O)nc3)c2cc1OC.O=S(=O)(O)c1ccccc1 [Benzensuplhonate, N-{5-[(6,7-dimethoxy-4-quinolinyl)oxy]-2-pyridinyl}-2,5-dioxo-1-phenyl-1,2,5,6,7,8-hexahydro-3-quinolinecarboxamide benzenesulfonate]
Weight increase at relative humidity of 90% (%) [1]: 7.2%

COc1cc2nccc(Oc3ccc(NC(=O)c4cc5c(n(-c6ccccc6)c4=O)CCCC5=O)nc3)c2cc1OC.O=S(=O)(O)CCO [Isethionate, N-{5-[(6,7-dimethoxy-4-quinolinyl)oxy]-2-pyridinyl}-2,5-dioxo-1-phenyl-1,2,5,6,7,8-hexahydro-3-quinolinecarboxamide isethionate]
Weight increase at relative humidity of 90% (%) [1]: 14.5%

COc1cc2nccc(Oc3ccc(NC(=O)c4cc5c(n(-c6ccccc6)c4=O)CCCC5=O)nc3)c2cc1OC.O=P(O)(O)O [Phosphate, N-{5-[(6,7-dimethoxy-4-quinolinyl)oxy]-2-pyridinyl}-2,5-dioxo-1-phenyl-1,2,5,6,7,8-hexahydro-3-quinolinecarboxamide phosphate]
Weight increase at relative humidity of 90% (%) [1]: 5.5%

COc1cc2nccc(Oc3ccc(NC(=O)c4cc5c(n(-c6ccccc6)c4=O)CCCC5=O)nc3)c2cc1OC.Cl [Hydrochloride, N-{5-[(6,7-dimethoxy-4-quinolinyl)oxy]-2-pyridinyl}-2,5-dioxo-1-phenyl-1,2,5,6,7,8-hexahydro-3-quinolinecarboxamide hydrochloride]
Weight increase at relative humidity of 90% (%) [1]: 8.0%

COc1cc2nccc(Oc3ccc(NC(=O)c4cc5c(n(-c6ccccc6)c4=O)CCCC5=O)nc3)c2cc1OC.O=S(=O)(O)CCS(=O)(=O)O [Ethanedisulfonate, N-{5-[(6,7-dimethoxy-4-quinolinyl)oxy]-2-pyridinyl}-2,5-dioxo-1-phenyl-1,2,5,6,7,8-hexahydro-3-quinolinecarboxamide ethanedisulfonate]
Weight increase at relative humidity of 90% (%) [1]: 46.4%

CCS(=O)(=O)O.COc1cc2nccc(Oc3ccc(NC(=O)c4cc5c(n(-c6ccccc6)c4=O)CCCC5=O)nc3)c2cc1OC [Ethanesulfonate, N-{5-[(6,7-dimethoxy-4-quinolinyl)oxy]-2-pyridinyl}-2,5-dioxo-1-phenyl-1,2,5,6,7,8-hexahydro-3-quinolinecarboxamide ethanesulfonate]
Weight increase at relative humidity of 90% (%) [1]: 0.7%
rate of weight change upon moisture absorption (in words) ([1]; among various acid addition salts of the compound A): small rate of weight change upon moisture absorption
residual rate % ([2]; Aluminum foil shielding): 100.0%
residual rate % [2, 4]: 99.5%
residual rate % [2, 5]: 94.5%
stability to light (in words) ([2]; compared with p-toluenesulfonate of the compound A, API and simple formulation): more excellent also in terms of the stability to light
residual rate % ([3]; Aluminum foil shielding): 99.7%
residual rate % ([3]; Brown bottle): 98.4%
residual rate % ([3]; Transparent bottle): 59.3%

COc1cc2nccc(Oc3ccc(NC(=O)c4cc5c(n(-c6ccccc6)c4=O)CCCC5=O)nc3)c2cc1OC.Cc1ccc(S(=O)(=O)O)cc1 [P-toluenesulfonate, N-{5-[(6,7-dimethoxy-4-quinolinyl)oxy]-2-pyridinyl}-2,5-dioxo-1-phenyl-1,2,5,6,7,8-hexahydro-3-quinolinecarboxamide p-toluenesulfonate]
Weight increase at relative humidity of 90% (%) [1]: 2.6%
residual rate % ([2]; Aluminum foil shielding): 100.6%
residual rate % [2, 4]: 92.7%
residual rate % [2, 5]: 86.1%
residual rate % ([3]; Aluminum foil shielding): 99.9%
residual rate % ([3]; Brown bottle): 83.3%
residual rate % ([3]; Transparent bottle): 40.7%

COc1cc2nccc(Oc3ccc(NC(=O)c4cc5c(n(-c6ccccc6)c4=O)CCCC5=O)nc3)c2cc1OC [compound A, N-{5-[(6,7-dimethoxy-4-quinolinyl)oxy]-2-pyridinyl}-2,5-dioxo-1-phenyl-1,2,5,6,7,8-hexahydro-3-quinolinecarboxamide]
Axl-selective inhibiting activity (in words) (Axl): Axl-selective inhibiting activity
CYP inhibitory action (in words) (CYP): low CYP inhibitory action

COc1cc2nccc(Oc3ccc(NC(=O)c4cc5c(n(-c6ccccc6)c4=O)CCCC5=O)nc3)c2cc1OC.CS(=O)(=O)O [Methanesulfonate, N-{5-[(6,7-dimethoxy-4-quinolinyl)oxy]-2-pyridinyl}-2,5-dioxo-1-phenyl-1,2,5,6,7,8-hexahydro-3-quinolinecarboxamide methanesulfonate]
Weight increase at relative humidity of 90% (%) [1]: 4.0%

COc1cc2nccc(Oc3ccc(NC(=O)c4cc5c(n(-c6ccccc6)c4=O)CCCC5=O)nc3)c2cc1OC.O=S(=O)(O)O [Sulfate, N-{5-[(6,7-dimethoxy-4-quinolinyl)oxy]-2-pyridinyl}-2,5-dioxo-1-phenyl-1,2,5,6,7,8-hexahydro-3-quinolinecarboxamide sulfate]
Weight increase at relative humidity of 90% (%) [1]: 7.2%
